{"source": "ChEMBL document CHEMBL1150718", "about": "“Antineoplastic agents, 122. Constituents of Combretum caffrum” (1987)", "key": {"[1]": {"system": "P388", "experiment": "Growth inhibition of mouse P388 cells", "type": "functional"}, "[2]": {"experiment": "Antimitotic activity against rat 9ASK cells assessed as reversal of astrocyte morphology at 0.1 ug/ml", "type": "functional"}, "[3]": {"experiment": "Antimitotic activity against rat 9ASK cells assessed as reversal of astrocyte morphology at 1 to 100 ug/ml", "type": "functional"}, "[4]": {"system": "P388", "experiment": "In vivo cytotoxicity against mouse P388 cells at 5 mg/kg", "type": "functional, organism-based", "parameters": "dose 5 mg/kg"}, "[5]": {"experiment": "Cytotoxicity against rat 9ASK cells at 0.1 ug/ml", "type": "functional"}}, "note": "Activity calls are given as the source filed them. The rule behind the calls is not given here.", "data": [{"smiles": "COc1cc2c(=O)oc3c(OC)c(O)cc4c(=O)oc(c1OC)c2c34", "values": [{"measurement": "ED50", "setting": "[1]", "result": "inactive"}]}, {"smiles": "COc1ccc(-c2cc(=O)c3c(O)cc(O)cc3o2)cc1", "values": [{"measurement": "ED50", "setting": "[1]", "result": "inactive"}]}, {"smiles": "COc1ccc(C[C@@H](O)c2cc(OC)c(OC)c(OC)c2)cc1O", "note": "[COMBRETASTATIN]", "values": [{"measurement": "Activity", "setting": "[2]", "result": 51, "unit": "%"}, {"measurement": "Activity", "setting": "[3]", "result": 71, "unit": "%"}, {"measurement": "Activity", "setting": "[4]", "result": "Active"}, {"measurement": "EC50", "setting": "[1]; read-out: ED50 (the source's name)", "result": 0.011, "unit": "µg/mL"}, {"measurement": "Activity", "setting": "[5]", "result": 0, "unit": "%"}]}]}
